Test results as given in patent US20230416205A1, “COMPOUNDS, COMPOSITIONS, AND METHODS” (Denali Therapeutics Inc, priority 2020, published 2023).
pIC50: −log10 of the molar value. Like-named read-outs stand apart in the source and are kept apart here.

Tested on: NLRP3
Assay: IL-1β secretion assay in PMA-differentiated, LPS/nigericin-stimulated THP-1 cells (384-well, ELISA read-out)
Type: cell-based, human
Settings: Homo sapiens
Outline: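 THP-1 cells differentiated with PMA (5 ng/mL, 40 h), primed in serum-free medium with 25 ng/mL LPS for 2 h, treated with compounds 1 h (0.5% DMSO), then stimulated with nigericin for 2 h at 37 °C. Supernatant IL-1β measured by ELISA; responses normalized to LPS+5 μM nigericin and LPS-only controls.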

[1] = THP-1, IL-1β secretion, PMA-differentiated THP-1 cells, LPS then nigericin stimulation, ELISA read at 450 nm, read-out: Activity
[2] = THP-1, Table 4, IL-1β secretion, LPS/nigericin-stimulated THP-1 cells, read-out: IC50

`CC1N(CC(=O)Nc2ncccn2)C(=O)c2ccc(C(F)(F)F)cc2C12CC2` (stereo not drawn) [Example 76, 2-[3-methyl-1-oxo-6-(trifluoromethyl)spiro[3H-isoquinoline-4,1′-cyclopropane]-2-yl]-N-pyrimidin-2-ylacetamide] showed a pIC50 [1] of less than 4.82 and a pIC50 [2] of 4.79.

In the case of `O=C1c2ccc(Br)cc2C2(CC2)CN1C1(C(=O)Nc2ncccn2)CC1` [Example 77, 1-(6-bromo-1-oxospiro[3H-isoquinoline-4,1′-cyclopropane]-2-yl)-N-pyrimidin-2-ylcyclopropane-1-carboxamide], the pIC50 [1] was greater than 5.00 and the pIC50 [2] was 5.43.

`O=C(CN1C[C@]2(C[C@H]2F)c2cc(Br)ccc2C1=O)Nc1ncc(F)cn1` [Example 79, 2-[(2′R,4S)-6-bromo-2′-fluoro-1-oxospiro[3H-isoquinoline-4,1′-cyclopropane]-2-yl]-N-(5-fluoropyrimidin-2-yl)acetamide] was tested, and the pIC50 [1] was greater than 5.00 and the pIC50 [2] was 7.82.

For `O=C(CN1CC2(CC23CC3)c2cc(Br)ccc2C1=O)Nc1ncc(F)cn1` (stereo not drawn) [Example 81, N-(5-fluoropyrimidin-2-yl)-2-(6-bromo-1-oxospiro[3H-isoquinoline-4,1′-(spiro[2.2]pentan-1-yl)]-2-yl)acetamide], the pIC50 [1] was greater than 5.00 and the pIC50 [2] was 5.59.

For `O=C(CN1CC2(CC2)c2cc(OCF)ccc2C1=O)Nc1ncccn1` [Example 82, 2-[6-(fluoromethoxy)-1-oxospiro[3H-isoquinoline-4,1′-cyclopropane]-2-yl]-N-pyrimidin-2-ylacetamide], the pIC50 [1] was greater than 5.00 and the pIC50 [2] was 5.65.

In the case of `O=C(CN1CC2(CC2)c2c(ccc(Br)c2Cl)C1=O)Nc1ncc(F)cn1` [Example 83, 2-(6-bromo-5-chloro-1-oxospiro[3H-isoquinoline-4,1′-cyclopropane]-2-yl)-N-(5-fluoropyrimidin-2-yl)acetamide], the pIC50 [1] was greater than 5.00 and the pIC50 [2] was 6.28.

Compound `O=C(CN1CC2(CC2)c2cc(C(F)(F)F)c(F)cc2C1=O)Nc1ncc(F)cn1` [Example 84, 2-[7-fluoro-1-oxo-6-(trifluoromethyl)spiro[3H-isoquinoline-4,1′-cyclopropane]-2-yl]-N-(5-fluoropyrimidin-2-yl)acetamide] has a pIC50 [1] greater than 5.00 and a pIC50 [2] of 5.22.

For `N#Cc1cnc(NC(=O)CN2CC3(CC3)c3cc(C(F)(F)F)ccc3C2=O)c(F)c1` [Example 85, N-(5-cyano-3-fluoropyridin-2-yl)-2-[1-oxo-6-(trifluoromethyl)spiro[3H-isoquinoline-4,1′-cyclopropane]-2-yl]acetamide], the pIC50 [1] was greater than 5.00 and the pIC50 [2] was 6.00.

`O=C(CN1C[C@@]2(C[C@@H]2C(F)(F)F)c2cc(Br)ccc2C1=O)Nc1ncc(F)cn1` [Example 86, 2-[(2′s,4r)-6-bromo-1-oxo-2′-(trifluoromethyl)spiro[3H-isoquinoline-4,1′-cyclopropane]-2-yl]-N-(5-fluoropyrimidin-2-yl)acetamide] gave a pIC50 [1] greater than 5.00 and a pIC50 [2] of 5.55.

`O=C(CN1CC2(CC2)c2cc(C3CCC3)ccc2C1=O)Nc1ncc(F)cn1` [Example 87, 2-(6-cyclobutyl-1-oxospiro[3H-isoquinoline-4,1′-cyclopropane]-2-yl)-N-(5-fluoropyrimidin-2-yl)acetamide] was tested, and the pIC50 [1] was greater than 5.00 and the pIC50 [2] was 5.27.

Compound `O=C(CN1CC2(CC2)c2cc(C3CC3(F)F)ccc2C1=O)Nc1ncc(F)cn1` (stereo not drawn) [Example 88, 2-[6-(2,2-difluorocyclopropyl)-1-oxo-spiro[3H-isoquinoline-4,1′-cyclopropane]-2-yl]-N-(5-fluoropyrimidin-2-yl)acetamide] has a pIC50 [1] greater than 5.00 and a pIC50 [2] of 5.44.

`N#Cc1c(C(F)(F)F)ccc2c1C1(CC1)CN(CC(=O)Nc1ncc(F)cn1)C2=O` [Example 89, 2-[5-cyano-1-oxo-6-(trifluoromethyl)spiro[3H-isoquinoline-4,1′-cyclopropane]-2-yl]-N-(5-fluoropyrimidin-2-yl)acetamide] gave a pIC50 [1] greater than 5.00 and a pIC50 [2] of 5.16.

`O=C(CN1CC2(CC2)c2cc(I)ccc2C1=O)Nc1ncc(F)cn1` [Example 90, N-(5-fluoropyrimidin-2-yl)-2-(6-iodo-1-oxospiro[3H-isoquinoline-4,1′-cyclopropane]-2-yl)acetamide] showed a pIC50 [1] greater than 5.00 and a pIC50 [2] of 7.47.

For `COc1ccc2c(c1)C1(CC1)CN(CC(=O)Nc1ncccn1)C2=O` [Example 91, 2-(6-methoxy-1-oxospiro[3H-isoquinoline-4,1′-cyclopropane]-2-yl)-N-pyrimidin-2-ylacetamide], the pIC50 [1] was greater than 5.00 and the pIC50 [2] was 5.49.

Compound `O=C(CN1CC2(COC2)c2cc(Br)ccc2C1=O)Nc1ncccn1` [Example 92, 2-(6-bromo-1-oxospiro[3H-isoquinoline-4,3′-oxetane]-2-yl)-N-pyrimidin-2-ylacetamide] has a pIC50 [1] greater than 5.00 and a pIC50 [2] of 5.35.

For `N#CC1(c2ccc3c(c2)C2(CC2)CN(CC(=O)Nc2ncc(F)cn2)C3=O)CC1` [Example 93, 2-[6-(1-cyanocyclopropyl)-1-oxospiro[3H-isoquinoline-4,1′-cyclopropane]-2-yl]-N-(5-fluoropyrimidin-2-yl)acetamide], the pIC50 [1] was greater than 5.00 and the pIC50 [2] was 5.64.

With `O=C(CN1CC2(CC2)c2cc(Cl)ccc2C1=O)Nc1ncc(F)cn1` [Example 94, 2-(6-chloro-1-oxospiro[3H-isoquinoline-4,1′-cyclopropane]-2-yl)-N-(5-fluoropyrimidin-2-yl)acetamide] the pIC50 [1] was greater than 5.00 and the pIC50 [2] was 6.43.

Work on `O=C(CN1CC(C(F)F)c2cc(Br)ccc2C1=O)Nc1ncc(F)cn1` (stereo not drawn) [Example 95, 2-[6-bromo-4-(difluoromethyl)-1-oxo-3,4-dihydroisoquinolin-2-yl]-N-(5-fluoropyrimidin-2-yl)acetamide] yielded a pIC50 [1] greater than 5.00 and a pIC50 [2] of 6.49.

For `O=C(CN1CC2(CC2)c2cc(C(F)F)ccc2C1=O)Nc1ncc(F)cn1` [Example 96, 2-[6-(difluoromethyl)-1-oxospiro[3H-isoquinoline-4,1′-cyclopropane]-2-yl]-N-(5-fluoropyrimidin-2-yl)acetamide], the pIC50 [1] was greater than 5.00 and the pIC50 [2] was 5.88.

In the case of `CC1(c2ccc3c(c2)C2(CC2)CN(CC(=O)Nc2ncc(F)cn2)C3=O)CC1` [Example 97, N-(5-fluoropyrimidin-2-yl)-2-[6-(1-methylcyclopropyl)-1-oxospiro[3H-isoquinoline-4,1′-cyclopropane]-2-yl]acetamide], the pIC50 [1] was greater than 5.00 and the pIC50 [2] was 5.91.

For `O=C(CN1CC2(CC2)c2c(ccc(Cl)c2F)C1=O)Nc1ncc(F)cn1` [Example 98, 2-(6-chloro-5-fluoro-1-oxospiro[3H-isoquinoline-4,1′-cyclopropane]-2-yl)-N-(5-fluoropyrimidin-2-yl)acetamide], the pIC50 [1] was greater than 5.00 and the pIC50 [2] was 6.46.

Compound `O=C(CN1CC2(CC2)c2cc(Br)c(F)cc2C1=O)Nc1ncc(F)cn1` [Example 99, 2-(6-bromo-7-fluoro-1-oxospiro[3H-isoquinoline-4,1′-cyclopropane]-2-yl)-N-(5-fluoropyrimidin-2-yl)acetamide] has a pIC50 [1] greater than 5.00 and a pIC50 [2] of 6.22.

`O=C(CN1CC2(CC2)c2c(ccc(C3CC3)c2F)C1=O)Nc1ncc(F)cn1` [Example 100, 2-(6-cyclopropyl-5-fluoro-1-oxospiro[3H-isoquinoline-4,1′-cyclopropane]-2-yl)-N-(5-fluoropyrimidin-2-yl)acetamide] gave a pIC50 [1] greater than 5.00 and a pIC50 [2] of 6.94.

Work on `CC(F)(F)c1ccc2c(c1)C1(CC1)CN(CC(=O)Nc1ncc(F)cn1)C2=O` [Example 101, 2-[6-(1,1-difluoroethyl)-1-oxospiro[3H-isoquinoline-4,1′-cyclopropane]-2-yl]-N-(5-fluoropyrimidin-2-yl)acetamide] yielded a pIC50 [1] greater than 5.00 and a pIC50 [2] of 6.17.
